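Five concentrations, 48 hours, 96-well plates. At the TGI there is no net growth.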
How the values were obtained:
Assay in all cases: growth of human tumour cells (NCI), 48 h
RPMI-8226 leukemia = tested on: RPMI-8226 leukemia
HCT-15 colon = tested on: HCT-15 colon
NCI/ADR-RES ovarian = tested on: NCI/ADR-RES ovarian
A549 NSCLC = tested on: A549 NSCLC
HOP-92 NSCLC = tested on: HOP-92 NSCLC
UACC-62 melanoma = tested on: UACC-62 melanoma
SNB-75 CNS = tested on: SNB-75 CNS
OVCAR-3 ovarian = tested on: OVCAR-3 ovarian
ACHN renal = tested on: ACHN renal
IGROV1 ovarian = tested on: IGROV1 ovarian
SN12C renal = tested on: SN12C renal
CCRF-CEM leukemia = tested on: CCRF-CEM leukemia

## CC(C)(C)OC(=O)N1C(C2=COc3ccccc3O2)=COc2cccnc21
RPMI-8226 leukemia
  TGI: 4.43 µM
HCT-15 colon
  TGI: 3.46 µM
NCI/ADR-RES ovarian
  TGI: 4.7 µM
A549 NSCLC
  TGI: 4.38 µM
HOP-92 NSCLC
  TGI: 3.9 µM
UACC-62 melanoma
  TGI: 3.17 µM
SNB-75 CNS
  TGI: 29.2 µM
OVCAR-3 ovarian
  TGI: 3.31 µM
ACHN renal
  TGI: 3.19 µM
IGROV1 ovarian
  TGI: 3.35 µM
SN12C renal
  TGI: 3.37 µM

## O=c1oc2c(ccc3occc32)c(N2CCCCC2)c1-c1ccccc1
HCT-15 colon
  TGI: > 100 µM
NCI/ADR-RES ovarian
  TGI: > 100 µM
A549 NSCLC
  TGI: > 100 µM
CCRF-CEM leukemia
  TGI: > 59.5 µM
HOP-92 NSCLC
  TGI: > 100 µM
UACC-62 melanoma
  TGI: > 100 µM
SNB-75 CNS
  TGI: > 100 µM
OVCAR-3 ovarian
  TGI: > 100 µM
IGROV1 ovarian
  TGI: > 100 µM
SN12C renal
  TGI: > 100 µM

## CC(Br)C(=O)c1ccc2cc(Br)c3ccccc3c2c1 (stereo not given)
RPMI-8226 leukemia
  TGI: 21.2 µM
HCT-15 colon
  TGI: 31 µM
NCI/ADR-RES ovarian
  TGI: 35 µM
A549 NSCLC
  TGI: 39.1 µM
CCRF-CEM leukemia
  TGI: 14.6 µM
HOP-92 NSCLC
  TGI: 30.8 µM
UACC-62 melanoma
  TGI: 28.7 µM
SNB-75 CNS
  TGI: 29 µM
OVCAR-3 ovarian
  TGI: 26.6 µM
ACHN renal
  TGI: 31.4 µM
IGROV1 ovarian
  TGI: 26.3 µM
SN12C renal
  TGI: 23.3 µM

## COc1cc(S(=O)(=O)N/N=C/C=C/c2ccccc2)c(OC)cc1NC(C)=O
RPMI-8226 leukemia
  TGI: 60.9 µM
HCT-15 colon
  TGI: > 100 µM
NCI/ADR-RES ovarian
  TGI: > 100 µM
A549 NSCLC
  TGI: > 100 µM
CCRF-CEM leukemia
  TGI: > 100 µM
HOP-92 NSCLC
  TGI: > 100 µM
UACC-62 melanoma
  TGI: > 100 µM
SNB-75 CNS
  TGI: > 100 µM
OVCAR-3 ovarian
  TGI: > 100 µM
ACHN renal
  TGI: > 100 µM
IGROV1 ovarian
  TGI: > 100 µM
SN12C renal
  TGI: > 100 µM

## NCCCCN
HCT-15 colon
  TGI: > 100 µM
NCI/ADR-RES ovarian
  TGI: > 100 µM
A549 NSCLC
  TGI: > 100 µM
CCRF-CEM leukemia
  TGI: > 100 µM
HOP-92 NSCLC
  TGI: > 100 µM
UACC-62 melanoma
  TGI: > 100 µM
SNB-75 CNS
  TGI: > 100 µM
OVCAR-3 ovarian
  TGI: > 100 µM
ACHN renal
  TGI: > 100 µM
IGROV1 ovarian
  TGI: > 100 µM

## NC(CCc1ccccc1)(C(=O)O)c1ccccc1 (stereo not given)
HCT-15 colon
  TGI: > 100 µM
NCI/ADR-RES ovarian
  TGI: > 100 µM
A549 NSCLC
  TGI: > 100 µM
CCRF-CEM leukemia
  TGI: > 100 µM
HOP-92 NSCLC
  TGI: > 100 µM
UACC-62 melanoma
  TGI: > 100 µM
SNB-75 CNS
  TGI: > 100 µM
OVCAR-3 ovarian
  TGI: > 100 µM
ACHN renal
  TGI: > 100 µM
IGROV1 ovarian
  TGI: > 100 µM
SN12C renal
  TGI: > 100 µM

## CCOC(=O)c1c(Nc2ccccc2)sc2cccnc12
RPMI-8226 leukemia
  TGI: 58.3 µM
HCT-15 colon
  TGI: 58.3 µM
NCI/ADR-RES ovarian
  TGI: 67.8 µM
A549 NSCLC
  TGI: 81.1 µM
CCRF-CEM leukemia
  TGI: 71.5 µM
HOP-92 NSCLC
  TGI: > 29.3 µM
UACC-62 melanoma
  TGI: 45.3 µM
SNB-75 CNS
  TGI: 59.3 µM
OVCAR-3 ovarian
  TGI: 48.7 µM
ACHN renal
  TGI: > 88 µM
IGROV1 ovarian
  TGI: 47.4 µM
SN12C renal
  TGI: 45 µM

## CCOC(=O)C(Cc1ccc(OC(=O)c2ccc(OC)cc2OC)cc1)NC(=O)C(F)(F)F (stereo not given)
RPMI-8226 leukemia
  TGI: 50.7 µM
HCT-15 colon
  TGI: 43.3 µM
NCI/ADR-RES ovarian
  TGI: 79.4 µM
A549 NSCLC
  TGI: > 100 µM
CCRF-CEM leukemia
  TGI: 83.8 µM
HOP-92 NSCLC
  TGI: 55.1 µM
UACC-62 melanoma
  TGI: 30.5 µM
SNB-75 CNS
  TGI: 33.1 µM
OVCAR-3 ovarian
  TGI: 36.9 µM
ACHN renal
  TGI: 30.9 µM
IGROV1 ovarian
  TGI: 41.8 µM
SN12C renal
  TGI: > 100 µM

Source: PubChem BioAssay (NCI)
